{"source": "patent US8613948B2", "about": "“Treatment of faecal incontinence and other conditions with 1R, 2S-methoxamine” (Norgine BV, priority 2001, dated 2013)", "key": {"[1]": {"tested_on": "pig internal anal sphincter muscle", "assay": "In vitro contraction of internal anal sphincter muscle strips in superfusion organ bath", "format": "cell-based", "method": "Tissue was obtained from female Large White pigs from a local abattoir. Pieces of internal anal sphincter muscle were cut and the tissue was transferred immediately to Krebs solution at 4° C. (120 mM NaCl, 5.9 mM KCl, 15.4 mM Na2HCO3, 1.2 mM NaH2PO4, 2.5 mM CaCl2, 1.2 mM MgCl2, 11.5 mM glucose, equilibrated with 97% oxygen and 3% carbon dioxide to maintain the pH at 7.4±0.05). The epithelium of the anal canal was removed along with the submucosa. Strips of the internal anal sphincter (IAS) were cut, each measuring approximately 1×1×7 mm, weighing 2 mg to 8 mg and containing parallel muscle bundles. Fine 5-0 silk ligatures were tied to each end and the strips mounted for isometric tension recording in superfusion organ baths (capacity 0.2 ml)^19 as shown in FIG. 1. The muscle strip 1 is held by a thread 2 to secure it in position within the Perspex jacket 3. The strips were perfused continuously with Krebs solution (37° C.) at a rate of 1 ml/min introduced via an inflow 4 and exiting via an overflow 5. This apparatus allows six strips to be studied simultaneously. The strips were initially loaded with 1 g tension and allowed to equilibrate for at least 90 minutes. Tension was measured by Pioden dynamometer UF1 transducer (Pioden Controls, Canterbury, UK) involving a tension transducer 6 and ring electrodes 7 and 7a, and recorded both on a six channel Tekman 900 pen recorder (Tekman Electronics, Learnington Spa, UK) and using Chart v3.6 and MacLab Data Acquisition System (AD Instruments, Australia).\nPhenylephrine (Sigma Chemical Co., Poole, UK), methoxamine racemate and the four methoxamine isomers were dissolved in Krebs solution and tested for their effect on IAS tone. Methoxamine racemate, that is to say, an equimolar mixture of the four isomers, was produced by Prosyth Limited, Acton, Sudbury, Suffolk. The four isomers (called peaks 1 to 4), were separated as described in Example 3. Peak 2 is 1R,2S-methoxamine. The 1R,2S isomer was also synthesised as described in Example 4. It has been confirmed by crystallography that peak 2 is 1R,2S-methoxamine.\nIAS strips developed intrinsic tone during the equilibrium period. After equilibration increasing concentrations of each of the test compounds were added for 20 second periods, with intervening washout periods of at least ten minutes, until the tone had returned to baseline.\nResults are expressed as mean (standard error of the mean) and the number of surgical specimens from which these strips were derived. A maximum of six strips were used from each pig for each test compound.\nTest compound-induced increases in tone were calculated by taking the peak tone after application of the test compound and […]. This figure was then expressed as a percentage of maximal increase in tone seen across the dose range used (10^−2M to 10^−8M). All analysis was performed using Chart v3.6 software.\nEC50 values were calculated by plotting concentration-response curves for each muscle strip. The dose causing 50% of maximal contraction was calculated by linear regression. EC50 values for different drugs were compared using a two-tailed t-test, assuming unequal variance and with p<0.05 considered significant."}, "anaesthetised minipigs": {"tested_on": "anaesthetised minipigs", "assay": "Reactivity of the circulatory functions to arterenol or isoproterenol", "format": "in vivo, Göttingen-minipigs", "conditions": "any of the gels", "method": "Before the first administration and at further suitable times after the administration, isoproterenol was administered intravenously for control purposes. Arterenol (norephinephrine hydrochloride, also known as L-noradrenaline) was administered for control purposes at the end of the study only after completing the collection of the blood samples for toxicokinetics."}}, "note": "pEC50: −log10 of the molar value. Read-outs that look alike come from different tables or passages of the source."}
{"smiles": "COc1ccc(OC)c([C@@H](O)C(C)N)c1", "note": "(single isomer, unassigned) [1R,2S-methoxamine]", "values": [{"measurement": "pEC50", "setting": "[1]; Sus scrofa, chemically synthesised 1R,2S isomer, pig IAS strips, read-out: EC50", "result": 4.98}, {"measurement": "EC50", "setting": "[1]; Sus scrofa, pig IAS strips, Table 1, read-out: EC50 value μM (±SE)", "result": 17.6, "unit": "µM"}, {"measurement": "contraction of smooth muscle strips from the IAS", "setting": "[1]; dose range 10^−2M to 10^−8M", "result": "caused dose dependent contraction"}, {"measurement": "potency at inducing contraction of internal anal sphincter muscle in vitro relative to phenylephrine", "setting": "[1]; in vitro", "result": "at least four times more potent"}, {"measurement": "potency relative to methoxamine racemate", "setting": "[1]; racemate = equimolar mixture of all four isomers", "result": "at least four times the potency"}, {"measurement": "expected reactions to arterenol or isoproterenol", "setting": "anaesthetised minipigs", "result": "not influenced"}]}
